The text below walks through data of patent publication EP0361645B1, “Organic hydrazine derivatives for pharmaceutical use” (ROHM AND HAAS COMPANY, priority 1988, dated 1990).

This assay has as its system dipteran larvae (both houseflies and mosquitoes) and certain coleopteran larvae. The assay can be described thus: Control of larvae and ovariole development in other insect orders. It is filed as in vivo. The source says:
We have observed the induction of premature head capsule apolysis by Example No. 3 in all larval stages of M. sexta. This phenomenon has also been observed in larval Lepidoptera of the families Noctuidae, Pyralidae and Pieridae. […] This latter activity is consistent with its putative ecdysonergic mechanism of action.

On to `CC(C)(C)N(NC(=O)c1ccccc1)C(=O)c1ccccc1` [Example No. 3, N'-t-butyl-N,N'-dibenzoylhydrazine], for which, where the note is “houseflies, mosquitoes, certain coleopteran larvae”, the control of larvae result is recorded as “controls”. Also, the ovariole development result (in all three orders) is given as “inhibit ovariole development”.
